Data from PMC8869097, “Benzothiazole Derivatives as Multifunctional Antioxidant Agents for Skin Damage: Structure–Activity Relationship of a Scaffold Bearing a Five-Membered Ring System” (Antioxidants, 2022).

How the values were obtained:
Trichophyton tonsurans = test: Antidermatophyte activity, plaque growth inhibition; assay type: cell-based, Trichophyton tonsurans CBS 483.76; conditions: 100 μg/mL, SDA, read-out: % Inhibition Growth T. tonsurans
Method: (§1) The dermatophytes used in this study were Epidermophyton floccosum var. floccosum (Netherlands) CBS 358.93 strain, Trichophyton tonsurans (Netherlands) CBS 483.76 strain, Trichophyton mentagrophytes (Netherlands) CBS 160.66 strain, Microsporum canis (Iran) CBS 131,110 strain, and Microsporum gypseum (Iran) CBS 130,948 strain. All dermatophytes were maintained at 4 °C as agar slants on SDA. Candida albicans (ATCC 10231) was maintained at 4 °C on SDA plate.
(§2) The in vitro antifungal activity against the five selected dermatophytes was evaluated, as previously described, using the plaque growth inhibition method. All compounds were evaluated at the final concentration of 100 µg/mL. The percentages of growth inhibition according to Equation (5) were calculated as the average of three different experiments. I = [(C − T)/C] × 100%,(5) where I is the percentage value of growth inhibition, C is the measure of the diameter of the control circular mycelial inoculum (mm) and T is the extended diameter of the treated mycelial inoculum (mm).
(§3) All synthesized benzothiazole derivatives were evaluated to evaluate their in vitro antifungal activity against the five pathogenic dermatophytes that cause the most common dermatomycoses: Microsporum gypseum, Microsporum canis, Trichophyton mentagrophytes, Trichophyton tonsurans and Epidermophyton floccosum. All compounds were tested at a concentration of 100 µg/mL in DMSO, to evaluate the ability to inhibit the growth of dermatophyte cultures in Sabouraud Dextrose Agar (SDA). Briefly, room temperature incubation was performed and dermatophyte inhibition assessed by measuring the colony diameter at each disc for 7 days. The results are shown in Table 3 and were determined as the average of three different experiments.

[1] = Ferric Reducing Antioxidant Power assay (FRAP); conditions: 593 nm
Method: The FRAP assay is a widely used method based on a colorimetric reaction linked to a redox and on the use of antioxidants as reducing agents.
The test evaluates the capacity of a sample to reduce ferric to ferrous ions in the presence of TPTZ (2,4,6-tripyridyl-s-triazine). The reaction mixture consists of 0.1 M acetate buffer pH 3.6, 10 mmol/L TPTZ in 40 mmol/HCl, and 20 mmol/L ferric chloride in the ratio 10/1/1 (v:v:v) as described by Benzie et al.. A total of 1.9 mL of reagent was added to 0.1 mL of suitably diluted sample or solvent. The absorbance values were measured using the UV-VIS spectrophotometer at 593 nm and expressed as µmol TE/g compound.

[2] = system: Trichophyton mentagrophytes; test: Antidermatophyte activity, plaque growth inhibition; assay type: cell-based, Trichophyton mentagrophytes CBS 160.66; conditions: 100 μg/mL, SDA, read-out: % Inhibition Growth T. mentagrophytes
Method: as §1, §2, §3

Microsporum gypseum = test: as above; assay type: cell-based, Microsporum gypseum CBS 130,948; conditions: Nannizzia gypsea; 100 μg/mL, SDA; read-out: % Inhibition Growth M. gypseum
Method: as §1, §2, §3

[3] = UV spectra of compounds in solution (filtering parameters); assay type: physicochemical
Method: The evaluation of the sun protection parameters has been carried out using a UV-Vis spectrophotometer. The absorbance of the solutions of the test compounds dissolved in the different solvents (DMSO, MeOH, DMSO–H2O 4:6, DMSO–H2O 6:4, HE) at a concentration of 0.0015 (±0.000005)% was recorded in the range 290–400 nm using a 1 cm quartz cell at 1 nm intervals. It was decided to evaluate the profile of the compounds in the Peg-7 Glyceryl Cocoate (HE) oil, which is the emollient of choice to solubilize the compounds in a formulation suitable for in vivo analysis. Wavelength absorbance is in relationship with transmittance (T (λ)) from Equation (2) A (λ) = […](2) where T (λ) is the fraction of incident irradiance that is transmitted through a sample.
The three parameters were determined, respectively, in DMSO and in methanol in order to perform a comparison (Table S1).
Since DMSO is a solvent with characteristics very close to those of an oil, the analysis was also carried out in solutions that mimic the possible conditions of a formulation. For this reason, the 4:6 and 6:4 proportions of DMSO–H2O were chosen to evaluate the choice of an oil-in-water or water-in-oil emulsion.

SK-Mel 5 cells = test: Antiproliferative activity; assay type: cell-based; conditions: Homo sapiens, read-out: IC50 SK-Mel5
Method: A stock solution of the compounds (20 mM in DMSO) was prepared and stored at −18 °C. Then, the compounds were diluted in the cell culture medium and tested starting with the 100 µM concentration as the upper limit. The application of equation (6) allowed to obtain the values of IC50. C1 − [50 − N1%/N2% − N1%] − (C1 − C2),(6) where C1 is the concentration of the compound which inhibits cell proliferation by more than 50%; C2 is the concentration of the compound which inhibits cell proliferation below 50%; N1% represents the number of cells (expressed as a percentage of control without compound) obtained in the presence of C1 and N2% represents the number of cells (as a percentage of control without compound) obtained in the presence of C2.
Finally, the compounds of this series of benzothiazole derivatives were tested to evaluate their antiproliferative activity in vitro against human T-cell leukemia cell line (CEM), human cervical carcinoma cells (HeLa), human pancreas cancer cells (Mia Paca-2) and human melanoma cells (SK-Mel 5). Non-cancerous HEK293T cells (Normal Kidney Epithelial Cells) were chosen as a control for cytotoxicity and/or selectivity. The results obtained have been summarized in Table 5 (data shown only for the active compounds) and are expressed as IC50 values in μM. The selectivity index (SI) was also reported, determined by comparing the values of IC50 (μM) obtained on healthy cells (HEK 293) with that obtained on tumor cells (CEM, HeLa, Mia-Paca-2 and SK- Mel 5) (Table 5).

Microsporum canis = test: Antidermatophyte activity, plaque growth inhibition; assay type: cell-based, Microsporum canis CBS 131,110; conditions: 100 μg/mL, SDA, read-out: % Inhibition Growth M. canis
Method: as §1, §2, §3

SMILES	A (absorbance) ([3]; DMSO)	ε (molar extinction coefficient) ([3]; DMSO)	λmax ([3]; DMSO) [nm]	A (absorbance) ([3]; DMSO-H2O 4:6)	ε (molar extinction coefficient) ([3]; DMSO-H2O 4:6)	λmax ([3]; DMSO-H2O 4:6) [nm]	A (absorbance) ([3]; DMSO-H2O 6:4)	λmax ([3]; DMSO-H2O 6:4) [nm]	A (absorbance) ([3]; HE (Peg-7 Glyceryl Cocoate))	ε (molar extinction coefficient) ([3]; HE (Peg-7 Glyceryl Cocoate))	λmax ([3]; HE (Peg-7 Glyceryl Cocoate)) [nm]	A (absorbance) ([3]; MeOH)	ε (molar extinction coefficient) ([3]; MeOH)	λmax ([3]; MeOH) [nm]	IC50 (SK-Mel 5 cells) [µM]	inhibition at 100 µg/mL (Trichophyton tonsurans) [%]	FRAP [1] [μmolTE/g]	inhibition at 100 µg/mL [2] [%]	inhibition at 100 µg/mL (Microsporum gypseum) [%]	inhibition at 100 µg/mL (Microsporum canis) [%]	further results
c1csc(-c2nc3ccccc3s2)c1 [Compound 10a, 2-(Thiophen-2-Yl)benzothiazole]	0.880	12735.17	321.80	0.75	12520.868	322.67	1.29	323.00	1.32	14316.703	320.30	0.760	9706.26	319.50	50 ± 5	64.5 ± 0.92	143.13 ± 3.84	61.95 ± 0.44	70.4 ± 0.77	66 ± 0.82	ε (molar extinction coefficient) ([3]; DMSO-H2O 6:4): 21535.893
NS(=O)(=O)c1ccc2nc(-c3cccs3)sc2c1 [Compound 10c, 2-(Thiophen-2-Yl)benzothiazole-6-Sulfonamide]	0.890	20273.35	336.50									0.430	9704.99	333.17	> 100	6.35 ± 0.02	60.90 ± 1.87	10.92 ± 0.09	12.36 ± 0.05	14.3 ± 0.7	
c1coc(-c2nc3ccccc3s2)c1 [Compound 9a, 2-(Furan-2-Yl)benzothiazole]	1.620	21715.82	322.10	2.43	34863.702	322.77	1.95	323.00	1.18	15817.594	320.70	2.750	32505.91	316.40	98 ± 2	57.9 ± 0.76	72.34 ± 3.42	54 ± 0.99	74.78 ± 0.59	64 ± 0.72	

These reach a lower IC50 (SK-Mel 5 cells). Values come first.

A (absorbance) ([3]; DMSO)	ε (molar extinction coefficient) ([3]; DMSO)	λmax ([3]; DMSO) [nm]	A (absorbance) ([3]; DMSO-H2O 4:6)	ε (molar extinction coefficient) ([3]; DMSO-H2O 4:6)	λmax ([3]; DMSO-H2O 4:6) [nm]	A (absorbance) ([3]; DMSO-H2O 6:4)	λmax ([3]; DMSO-H2O 6:4) [nm]	A (absorbance) ([3]; HE (Peg-7 Glyceryl Cocoate))	ε (molar extinction coefficient) ([3]; HE (Peg-7 Glyceryl Cocoate))	λmax ([3]; HE (Peg-7 Glyceryl Cocoate)) [nm]	A (absorbance) ([3]; MeOH)	ε (molar extinction coefficient) ([3]; MeOH)	λmax ([3]; MeOH) [nm]	IC50 (SK-Mel 5 cells) [µM]	SMILES	inhibition at 100 µg/mL (Trichophyton tonsurans) [%]	FRAP [1] [μmolTE/g]	inhibition at 100 µg/mL [2] [%]	inhibition at 100 µg/mL (Microsporum gypseum) [%]	inhibition at 100 µg/mL (Microsporum canis) [%]	further results
2.360	29500.00	333.40	2.35	31333.333	333.70	1.51	334.20	0.79	12153.846	332.80	1.540	23692.31	329.40	41 ± 4	c1c[nH]c(-c2nc3ccccc3s2)c1 [Compound 8a, 2-(1H-Pyrrol-2-Yl)benzothiazole]	7.46 ± 0.05	329.85 ± 0.94	10 ± 0.51	50 ± 1.34	25 ± 1.61	ε (molar extinction coefficient) ([3]; DMSO-H2O 6:4): 23239.769
														9.7 ± 1.7	c1c[nH]c(-c2nc3ccccc3[nH]2)c1 [Lead 10, reference compound]	96.97 ± 0.62	1085.57 ± 0.88	96.3 ± 2.42	99.1 ± 1.33	96.8 ± 3.56	
